From patent publication US12637440B2, “Amide derivative useful as diacylglycerol acyltransferase 2 inhibitor, and use thereof” (LG CHEM, LTD., priority 2019, dated 2026)
pIC50: −log10 of the molar value.

What follows are compounds tested against T1, Recombinant human DGAT2 protein (Homo sapiens, UniProt Q96PD7) (assay: Measurement of inhibitory effect against DGAT2 enzyme activity (SPA, Phospholipid FlashPlate, [14C]-TG production)). Conditions: concentration inhibiting [14C]-labeled triacyl glycerol (TG) production by 50%; 2 μg DGAT2-membrane protein from Sf-21 cells, 37° C.
T1 construct: FLAG (DYKDDDDK); (N); made in house; host or cells: Sf-21 insect cells (BacPAK baculovirus system); used as a membrane preparation
T1 sequence (Q96PD7 1-388): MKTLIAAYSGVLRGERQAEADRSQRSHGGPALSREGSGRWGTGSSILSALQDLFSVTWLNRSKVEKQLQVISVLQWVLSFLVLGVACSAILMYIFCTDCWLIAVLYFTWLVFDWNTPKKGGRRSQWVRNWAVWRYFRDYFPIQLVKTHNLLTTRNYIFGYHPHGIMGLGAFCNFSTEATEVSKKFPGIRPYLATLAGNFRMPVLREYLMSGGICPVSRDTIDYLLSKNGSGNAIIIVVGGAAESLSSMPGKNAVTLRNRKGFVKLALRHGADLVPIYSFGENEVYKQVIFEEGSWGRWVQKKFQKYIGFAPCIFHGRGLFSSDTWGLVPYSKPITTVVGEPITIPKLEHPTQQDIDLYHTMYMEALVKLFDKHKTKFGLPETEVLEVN
Assay type: biochemical
Outline: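 Membranes from Sf-21 cells expressing human DGAT2 (2 μg) preincubated 20 min at 37 °C with compound (3 nM–10 μM, 1% DMSO) in HEPES/MgCl2/BSA with 50 μM 1,2-dioleoyl glycerol, then 1 μM [14C]oleoyl-CoA for 15 min. [14C]-TG measured by SPA FlashPlate; inhibition as % of untreated control.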

SMILES	pIC50
CCOc1ccccc1O[C@@H]1CCCN(c2cncc(NC(=O)COc3ccc(CC(=O)O)cc3)n2)C1 [Example 100, (R)-2-(4-(2-((6-(3-(2-ethoxyphenoxy)piperidin-1-yl)pyrazin-2-yl)amino)-2-oxoethoxy)phenyl)acetic acid]	6.23
CCOc1ccccc1O[C@@H]1CCCN(c2cncc(NC(=O)COc3ccc(C(C)C(=O)O)cc3)n2)C1 (stereo partly drawn) [Example 101, 2-(4-(2-((6-((R)-3-(2-ethoxyphenoxy)piperidin-1-yl)pyrazin-2-yl)amino)-2-oxoethoxy)phenyl)propanoic acid]	6.49
CCOc1ccccc1O[C@@H]1CCCN(c2cncc(NC(=O)Cc3ccc(OCC(C)(C)C(=O)O)cc3)n2)C1 [Example 102]	6.35
CCOc1ccccc1O[C@@H]1CCCN(c2cncc(NC(=O)Cc3ccc(O[C@H](C)C(=O)O)cc3)n2)C1 [Example 103, (R)-2-(4-(2-((6-((R)-3-(2-ethoxyphenoxy)piperidin-1-yl)pyrazin-2-yl)amino)-2-oxoethyl)phenoxy)propanoic acid]	6.21
CCOc1ccccc1O[C@@H]1CCCN(c2cncc(NC(=O)Cc3ccc(O[C@@H](C)C(=O)O)cc3)n2)C1 [Example 104, (S)-2-(4-(2-((6-((R)-3-(2-ethoxyphenoxy)piperidin-1-yl)pyrazin-2-yl)amino)-2-oxoethyl)phenoxy)propanoic acid]	6.18
CCOc1cccnc1O[C@@H]1CCCN(c2cncc(NC(=O)Cc3ccc(OC(C)(C)C(=O)O)cc3)n2)C1 [Example 105, (R)-2-(4-(2-((6-(3-((3-ethoxypyridin-2-yl)oxy)piperidin-1-yl)pyrazin-2-yl)amino)-2-oxoethyl)phenoxy)-2-methylpropanoic acid]	7.05
CCOc1ccccc1O[C@@H]1CCCN(c2nccc(NC(=O)Cc3ccc(OC(C)(C)C(=O)O)cc3)n2)C1 [Example 106, (R)-2-(4-(2-((2-(3-(2-ethoxyphenoxy)piperidin-1-yl)pyrimidin-4-yl)amino)-2-oxoethyl)phenoxy)-2-methylpropanoic acid]	6.14
CCOc1ccccc1O[C@@H]1CCCN(c2cncc(NC(=O)Cc3ccc(OCc4ccc(C(C)(C)C(=O)O)cc4)cc3)n2)C1 [Example 107, (R)-2-(4-((4-(2-((6-(3-(2-ethoxyphenoxy)piperidin-1-yl)pyrazin-2-yl)amino)-2-oxoethyl)phenoxy)methyl)phenyl)-2-methylpropanoic acid]	7.15
CCOc1cccnc1O[C@@H]1CCCN(c2cncc(NC(=O)CCc3ccc(OC(C)(C)C(=O)O)cc3)n2)C1 [Example 108, (R)-2-(4-(3-((6-(3-((3-ethoxypyridin-2-yl)oxy)piperidin-1-yl)pyrazin-2-yl)amino)-3-oxopropyl)phenoxy)-2-methylpropanoic acid]	7.11
CCOc1ccccc1O[C@@H]1CCCN(c2nccc(NC(=O)CCc3ccc(OC(C)(C)C(=O)O)cc3)n2)C1 [Example 109, (R)-2-(4-(3-((2-(3-(2-ethoxyphenoxy)piperidin-1-yl)pyrimidin-4-yl)amino)-3-oxopropyl)phenoxy)-2-methylpropanoic acid]	5.96
CCOc1ccccc1O[C@@H]1CCCN(c2cncc(NC(=O)C(C)(C)c3ccc(CC(C)(C)C(=O)O)cc3)n2)C1 [Example 110, (R)-3-(4-(1-((6-(3-(2-ethoxyphenoxy)piperidin-1-yl)pyrazin-2-yl)amino)-2-methyl-1-oxopropan-2-yl)phenyl)-2,2-dimethylpropanoic acid]	7.12
CCOc1ccccc1O[C@@H]1CCCN(c2cncc(NC(=O)C(C)(C)Cc3ccc(C(C)(C)C(=O)O)cc3)n2)C1 [Example 111, (R)-2-(4-(3-((6-(3-(2-ethoxyphenoxy)piperidin-1-yl)pyrazin-2-yl)amino)-2,2-dimethyl-3-oxopropyl)phenyl)-2-methylpropanoic acid]	6.16
CCOc1ccccc1O[C@@H]1CCCN(c2nccc(NC(=O)Cc3ccc(CC(C)(C)C(=O)O)cc3)n2)C1 [Example 112, (R)-3-(4-(2-((2-(3-(2-ethoxyphenoxy)piperidin-1-yl)pyrimidin-4-yl)amino)-2-oxoethyl)phenyl)-2,2-dimethylpropanoic acid]	7.22
CCOc1ccccc1O[C@@H]1CCCN(c2ccnc(NC(=O)Cc3ccc(CC(C)(C)C(=O)O)cc3)n2)C1 [Example 113, (R)-3-(4-(2-((4-(3-(2-ethoxyphenoxy)piperidin-1-yl)pyrimidin-2-yl)amino)-2-oxoethyl)phenyl)-2,2-dimethylpropanoic acid]	6.82
CCOc1cccnc1O[C@@H]1CCCN(c2ccnc(NC(=O)Cc3ccc(CC(C)(C)C(=O)O)cc3)n2)C1 [Example 114, (R)-3-(4-(2-((4-(3-((3-ethoxypyridin-2-yl)oxy)piperidin-1-yl)pyrimidin-2-yl)amino)-2-oxoethyl)phenyl)-2,2-dimethylpropanoic acid]	6.85
CCOc1cccnc1O[C@@H]1CCCN(c2nccc(NC(=O)Cc3ccc(CC(C)(C)C(=O)O)cc3)n2)C1 [Example 115, (R)-3-(4-(2-((2-(3-((3-ethoxypyridin-2-yl)oxy)piperidin-1-yl)pyrimidin-4-yl)amino)-2-oxoethyl)phenyl)-2,2-dimethylpropanoic acid]	6.85
CCOc1cccnc1O[C@@H]1CCCN(c2cncc(NC(=O)Cc3ccc(CC(C)(C)C(=O)O)cc3)n2)C1 [Example 116, (R)-3-(4-(2-((6-(3-((3-ethoxypyridin-2-yl)oxy)piperidin-1-yl)pyrazin-2-yl)amino)-2-oxoethyl)phenyl)-2,2-dimethylpropanoic acid]	7.42
CCOc1ccccc1O[C@@H]1CCCN(c2cncc(NC(=O)CCC34CCC(C(=O)O)(CC3)CC4)n2)C1 [Example 117, (R)-4-(3-((6-(3-(2-ethoxyphenoxy)piperidin-1-yl)pyrazin-2-yl)amino)-3-oxopropyl)bicyclo[2.2.2]octane-1-carboxylic acid]	6.85
CCOc1ccccc1O[C@@H]1CCCN(c2cncc(NC(=O)CC34CCC(C(=O)O)(CC3)CC4)n2)C1 [Example 118, (R)-4-(2-((6-(3-(2-ethoxyphenoxy)piperidin-1-yl)pyrazin-2-yl)amino)-2-oxoethyl)bicyclo[2.2.2]octane-1-carboxylic acid]	6.77
CCOc1cccnc1O[C@@H]1CCCN(c2cncc(NC(=O)CCC34CCC(C(=O)O)(CC3)CC4)n2)C1 [Example 120, (R)-4-(3-((6-(3-((3-ethoxypyridin-2-yl)oxy)piperidin-1-yl)pyrazin-2-yl)amino)-3-oxopropyl)bicyclo[2.2.2]octane-1-carboxylic acid]	6.60
CCOc1ccccc1O[C@@H]1CCCN(c2cncc(NC(=O)/C=C/C34CCC(C(=O)O)(CC3)CC4)n2)C1 [Example 121, (R,E)-4-(3-((6-(3-(2-ethoxyphenoxy)piperidin-1-yl)pyrazin-2-yl)amino)-3-oxoprop-1-en-1-yl)bicyclo[2.2.2]octane-1-carboxylic acid]	7.01
CCOc1ccccc1O[C@@H]1CCCN(c2nccc(NC(=O)CCc3ccc(C(C)(C)C(=O)O)cc3)n2)C1 [Example 122, (R)-2-(4-(3-((2-(3-(2-ethoxyphenoxy)piperidin-1-yl)pyrimidin-4-yl)amino)-3-oxopropyl)phenyl)-2-methylpropanoic acid]	7.22
CCOc1cccnc1O[C@@H]1CCCN(c2cncc(NC(=O)CCc3ccc(C(C)(C)C(=O)O)cc3)n2)C1 [Example 123, (R)-2-(4-(3-((6-(3-((3-ethoxypyridin-2-yl)oxy)piperidin-1-yl)pyrazin-2-yl)amino)-3-oxopropyl)phenyl)-2-methylpropanoic acid]	7.46
CCOc1ccccc1O[C@@H]1CCCN(c2nccc(NC(=O)C(C)(C)c3ccc(CC(C)(C)C(=O)O)cc3)n2)C1 [Example 124, (R)-3-(4-(1-((2-(3-(2-ethoxyphenoxy)piperidin-1-yl)pyrimidin-4-yl)amino)-2-methyl-1-oxopropan-2-yl)phenyl)-2,2-dimethylpropanoic acid]	6.48
CCOc1cccnc1O[C@@H]1CCCN(c2cncc(NC(=O)C(C)(C)c3ccc(CC(C)(C)C(=O)O)cc3)n2)C1 [Example 125, (R)-3-(4-(1-((6-(3-((3-ethoxypyridin-2-yl)oxy)piperidin-1-yl)pyrazin-2-yl)amino)-2-methyl-1-oxopropan-2-yl)phenyl)-2,2-dimethylpropanoic acid]	7.46
CC(C)(Cc1ccc(C(C)(C)C(=O)Nc2cncc(N3CCC[C@@H](Oc4ccccc4OC4CCC4)C3)n2)cc1)C(=O)O [Example 126, (R)-3-(4-(1-((6-(3-(2-cyclobutoxyphenoxy)piperidin-1-yl)pyrazin-2-yl)amino)-2-methyl-1-oxopropan-2-yl)phenyl)-2,2-dimethylpropanoic acid]	5.42
CCOc1ccccc1O[C@@H]1CCCN(c2cncc(NC(=O)CCc3cccc(CC(C)(C)C(=O)O)c3)n2)C1 [Example 127, (R)-3-(3-(3-((6-(3-(2-ethoxyphenoxy)piperidin-1-yl)pyrazin-2-yl)amino)-3-oxopropyl)phenyl)-2,2-dimethylpropanoic acid]	7.08
CCOc1cccnc1O[C@@H]1CCCN(c2cncc(NC(=O)CCc3cccc(CC(C)(C)C(=O)O)c3)n2)C1 [Example 128, (R)-3-(3-(3-((6-(3-((3-ethoxypyridin-2-yl)oxy)piperidin-1-yl)pyrazin-2-yl)amino)-3-oxopropyl)phenyl)-2,2-dimethylpropanoic acid]	7.00
